Measured values as given in publication PMC4201354 (The Journal of Organic Chemistry, 2014).

How the values were obtained:
yeast α-glucosidase = details: against yeast α-glucosidase; cited from earlier work
Mtb GlgE = biological target: T1, Mtb GlgE (Mycobacterium tuberculosis, UniProt P9WQ17); experiment: GlgE-coupled enzyme assay utilizing PNP; assay type: biochemical
T1 sequence (P9WQ17 1-701): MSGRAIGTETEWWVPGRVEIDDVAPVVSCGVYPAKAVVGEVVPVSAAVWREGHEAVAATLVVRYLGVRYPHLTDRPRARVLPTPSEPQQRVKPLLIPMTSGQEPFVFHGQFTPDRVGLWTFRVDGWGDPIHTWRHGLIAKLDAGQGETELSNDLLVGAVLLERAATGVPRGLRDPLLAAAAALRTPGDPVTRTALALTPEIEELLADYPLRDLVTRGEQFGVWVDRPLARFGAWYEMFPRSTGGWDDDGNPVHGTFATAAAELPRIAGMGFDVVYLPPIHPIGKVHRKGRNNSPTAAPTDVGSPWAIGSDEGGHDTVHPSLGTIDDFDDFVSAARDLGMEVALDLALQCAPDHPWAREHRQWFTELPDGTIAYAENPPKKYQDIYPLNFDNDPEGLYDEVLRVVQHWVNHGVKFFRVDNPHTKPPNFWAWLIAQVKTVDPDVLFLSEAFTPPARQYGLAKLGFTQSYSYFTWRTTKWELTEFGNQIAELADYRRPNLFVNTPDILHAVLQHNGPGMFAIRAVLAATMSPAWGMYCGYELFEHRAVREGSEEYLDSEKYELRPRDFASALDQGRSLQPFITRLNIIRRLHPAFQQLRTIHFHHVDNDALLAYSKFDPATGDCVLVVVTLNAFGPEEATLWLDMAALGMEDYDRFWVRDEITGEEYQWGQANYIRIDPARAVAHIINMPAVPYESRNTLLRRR

Compound	Ki (yeast α-glucosidase) [µM]	Ki (Mtb GlgE) [µM]
5-amino-5-deoxy-D-glucose [Compound 1]	6.3	–
OC[C@H]1N[C@H](CO)[C@@H](O[C@H]2O[C@H](CO)[C@@H](O)[C@H](O)[C@H]2O)[C@@H]1O [Compound 9, 2,5-dideoxy-3-O-α-D-glucopyranosyl-2,5-imino-D-mannitol]	–	237 ± 27
